In the NIST ThermoML archive (doi:10.1016/j.fluid.2015.10.027):
Numbers after ± are expanded uncertainties.

Experiment: heat capacity at constant pressure per volume; xn = mol fraction of the nth substance listed
Details: DSC, x1 = 0.055

CC1CCCC(C)N1 (stereo not drawn) [2,6-dimethylpiperidine] + O
Liquid mixture 1
Details | heat capacity [J/K/m3]
264 K | 4559000 ± 180000
264.47 K | 4560000 ± 180000
264.95 K | 4546000 ± 180000
265.42 K | 4529000 ± 180000
265.9 K | 4518000 ± 180000
266.37 K | 4505000 ± 170000
266.84 K | 4492000 ± 170000
267.32 K | 4480000 ± 170000
267.79 K | 4471000 ± 170000
268.26 K | 4448000 ± 170000
268.74 K | 4442000 ± 170000
269.21 K | 4429000 ± 170000
269.68 K | 4420000 ± 170000
270.16 K | 4409000 ± 170000
270.63 K | 4398000 ± 170000
271.1 K | 4391000 ± 170000
271.58 K | 4375000 ± 170000
272.05 K | 4367000 ± 170000
272.52 K | 4356000 ± 170000
273 K | 4342000 ± 170000
273.47 K | 4341000 ± 170000
273.94 K | 4336000 ± 170000
274.42 K | 4322000 ± 170000
274.89 K | 4313000 ± 170000
275.36 K | 4305000 ± 170000
275.84 K | 4293000 ± 170000
276.31 K | 4289000 ± 170000
276.78 K | 4278000 ± 170000
277.25 K | 4274000 ± 170000
277.73 K | 4266000 ± 160000
278.2 K | 4260000 ± 160000
278.68 K | 4252000 ± 160000
279.15 K | 4250000 ± 160000
279.62 K | 4239000 ± 160000
280.1 K | 4237000 ± 160000
280.57 K | 4227000 ± 160000
281.04 K | 4227000 ± 160000
281.51 K | 4221000 ± 160000
281.99 K | 4216000 ± 160000
282.46 K | 4215000 ± 160000
282.94 K | 4208000 ± 160000
283.41 K | 4206000 ± 160000
283.88 K | 4199000 ± 160000
284.36 K | 4195000 ± 160000
284.83 K | 4191000 ± 160000
285.3 K | 4189000 ± 160000
285.77 K | 4182000 ± 160000
286.25 K | 4178000 ± 160000
286.72 K | 4177000 ± 160000
287.19 K | 4174000 ± 160000
287.67 K | 4174000 ± 160000
288.14 K | 4172000 ± 160000
288.61 K | 4170000 ± 160000
289.09 K | 4171000 ± 160000
289.56 K | 4167000 ± 160000
290.03 K | 4166000 ± 160000
290.51 K | 4165000 ± 160000
290.98 K | 4166000 ± 160000
291.45 K | 4165000 ± 160000
291.93 K | 4166000 ± 160000
292.6 K | 4164000 ± 160000
292.81 K | 4147000 ± 160000
293.02 K | 4141000 ± 160000
293.23 K | 4164000 ± 160000
293.45 K | 4134000 ± 160000
293.66 K | 4144000 ± 160000
293.87 K | 4164000 ± 160000
294.08 K | 4166000 ± 160000
294.3 K | 4164000 ± 160000
294.51 K | 4144000 ± 160000
294.72 K | 4183000 ± 160000
294.93 K | 4155000 ± 160000
295.14 K | 4142000 ± 160000
295.36 K | 4144000 ± 160000
295.57 K | 4153000 ± 160000
295.78 K | 4178000 ± 160000
295.99 K | 4155000 ± 160000
296.2 K | 4175000 ± 160000
296.42 K | 4213000 ± 160000
296.63 K | 4189000 ± 160000
296.84 K | 4188000 ± 160000
297.06 K | 4228000 ± 160000
297.27 K | 4210000 ± 160000
297.48 K | 4217000 ± 160000
297.69 K | 4232000 ± 160000
297.9 K | 4249000 ± 160000
298.12 K | 4247000 ± 160000
298.33 K | 4277000 ± 170000
298.54 K | 4280000 ± 170000
298.75 K | 4295000 ± 170000
298.96 K | 4312000 ± 170000
299.18 K | 4375000 ± 170000
299.39 K | 4534000 ± 180000

102.6 kPa, Liquid
Details | heat capacity [J/K/m3]
299.6 K | 5314000 ± 210000
299.81 K | 5077000 ± 200000
300.03 K | 5010000 ± 190000
300.24 K | 4873000 ± 190000
300.45 K | 4815000 ± 190000
300.66 K | 4801000 ± 190000
300.88 K | 4772000 ± 180000
301.09 K | 4785000 ± 180000
301.3 K | 4742000 ± 180000
301.51 K | 4632000 ± 180000
301.73 K | 4641000 ± 180000
301.94 K | 4672000 ± 180000
302.15 K | 4625000 ± 180000
302.36 K | 4675000 ± 180000
302.57 K | 4597000 ± 180000
302.79 K | 4600000 ± 180000
303 K | 4544000 ± 180000
303.21 K | 4578000 ± 180000
303.42 K | 4592000 ± 180000
303.64 K | 4555000 ± 180000
303.85 K | 4564000 ± 180000
304.06 K | 4532000 ± 180000
304.27 K | 4520000 ± 180000
304.49 K | 4530000 ± 180000
304.7 K | 4519000 ± 180000
304.91 K | 4468000 ± 170000
305.12 K | 4514000 ± 180000
305.33 K | 4463000 ± 170000
305.55 K | 4423000 ± 170000
305.76 K | 4443000 ± 170000
